Patent US20040053822A1, “Inducing cellular immune responses to mage2/3 using peptide and nucleic acid compositions” (priority 2002, published 2004)
Where two headings read alike, the source gives them in different places. Residues, ends and D or L forms follow the SMILES beside them.

What was measured:
[1] = target: HLA-B*0702 (Homo sapiens, UniProt P01889); experiment: Purified HLA class I peptide binding assay, B*0702
[2] = target: HLA-B*3501 (Homo sapiens, UniProt P01889, A329T/A93T/A95T/C349S/D201E/D98Y/E176V/E187L/E204Q/E69T/I218V/K202T/L119I/Q94N/R155S/R180L/S121R/S35A/S48A/T118I/V127L/V306I/V36M/Y140S/Y91F); experiment: Purified HLA class I peptide binding assay, B*3501
[3] = target: HLA-B*5101 (B51) (Homo sapiens, UniProt P01889, A329T/A93T/A95T/C349S/D138N/D201E/D98Y/E187L/E204Q/E69T/G107R/I218V/K202T/L105A/L119W/N104I/Q94N/R106L/R155S/R180L/S101N/S121T/S35A/S48A/V306I/V36M/Y195H/Y91F); experiment: Purified HLA class I peptide binding assay, B51; details: binding affinity, HLA-B7 supermotif-bearing peptides
[4] = target: HLA-B*5401 (Homo sapiens, UniProt P01889, A329T/C349S/D138N/D201E/E176V/E187T/E204Q/E69G/I76V/K202T/L119W/R155S/R180L/S121T/S35A/S48A/V127L/V306I/V36M/Y140L); experiment: Purified HLA class I peptide binding assay, B*5401
[5] = target: HLA-B*5301 (Homo sapiens, UniProt P01889, A329T/A93T/A95T/C349S/D201E/D98Y/E176V/E187L/E204Q/E69T/G107R/I218V/K202T/L105A/L119I/N104I/Q94N/R106L/R155S/R180L/S101N/S121R/S35A/S48A/T118I/V127L/V306I/V36M/Y140S/Y91F); experiment: Purified HLA class I peptide binding assay, B*5301
[6] = binding affinity, HLA-B7 supermotif-bearing peptides

| Structure (SMILES) | IC50 [1, 6] [nM] | IC50 [2, 6] [nM] | IC50 ([3]; read-out: B*5101 nM) [nM] | IC50 [4, 6] [nM] | IC50 [5, 6] [nM] | IC50 [1] [nM] | IC50 [2] [nM] | IC50 ([3]; B*5101 nM) [nM] | IC50 [5] [nM] | IC50 [4] [nM] |
| --- | --- | --- | --- | --- | --- | --- | --- | --- | --- | --- |
| CC[C@H](C)[C@H](NC(=O)[C@H](CC(C)C)NC(=O)[C@H](CC(=O)O)NC(=O)[C@H](CCC(N)=O)NC(=O)[C@H](CCSC)NC(=O)[C@H](CC(C)C)NC(=O)[C@H](CC(C)C)NC(=O)[C@H](CCCCN)NC(=O)[C@H](CCCNC(=N)N)NC(=O)[C@@H]1CCCN1C(=O)[C@@H](N)Cc1ccccc1)C(=O)O | 86 | > 10000 | 367 | 100 | – | – | – | – | – | – |
| CC[C@H](C)[C@H](NC(=O)[C@H](Cc1ccc(O)cc1)NC(=O)[C@H](CC(C)C)NC(=O)[C@H](Cc1c[nH]cn1)NC(=O)[C@H](CO)NC(=O)[C@@H](NC(=O)[C@@H]1CCCN1C(=O)[C@@H](N)Cc1ccccc1)[C@@H](C)CC)C(=O)O | – | – | – | – | – | 212 | 655 | 42 | 358 | 59 |
| CC(C)C[C@H](NC(=O)[C@H](C)NC(=O)[C@H](CCCNC(=N)N)NC(=O)[C@@H]1CCCN1C(=O)[C@@H](N)Cc1ccccc1)C(=O)N[C@H](C(=O)N[C@@H](CCC(=O)O)C(=O)N[C@H](C(=O)N[C@@H](CO)C(=O)N[C@@H](Cc1ccc(O)cc1)C(=O)N[C@H](C(=O)O)C(C)C)[C@@H](C)O)C(C)C | 4.2 | 4230 | 204 | 10 | > 10000 | – | – | – | – | – |
| CSCC[C@H](NC(=O)[C@@H](NC(=O)[C@@H](NC(=O)[C@@H]1CCCN1C(=O)[C@@H](N)Cc1ccccc1)[C@@H](C)O)[C@@H](C)O)C(=O)N[C@@H](CC(N)=O)C(=O)N[C@@H](Cc1ccc(O)cc1)C(=O)N1CCC[C@H]1C(=O)N[C@@H](CC(C)C)C(=O)O (H-FPTTMNYPL-OH; N-terminus and C-terminus assumed) | 6.4 | 4.5 | 423 | 3 | 39 | – | – | – | – | – |
| CC[C@H](C)[C@H](NC(=O)[C@H](CC(C)C)NC(=O)[C@H](C)NC(=O)[C@H](CCCNC(=N)N)NC(=O)[C@@H]1CCCN1C(=O)[C@@H](N)Cc1ccccc1)C(=O)N[C@@H](CCC(=O)O)C(=O)N[C@H](C(=O)N[C@@H](CO)C(=O)N[C@@H](Cc1ccc(O)cc1)C(=O)N[C@H](C(=O)O)C(C)C)[C@@H](C)O | 6.3 | 4500 | 128 | 7.1 | 7750 | – | – | – | – | – |

Further lines, with some results ahead:

| IC50 [1, 6] [nM] | IC50 [2, 6] [nM] | IC50 ([3]; read-out: B*5101 nM) [nM] | IC50 [4, 6] [nM] | IC50 [5, 6] [nM] | Structure (SMILES) | IC50 [1] [nM] | IC50 [2] [nM] | IC50 ([3]; B*5101 nM) [nM] | IC50 [5] [nM] | IC50 [4] [nM] |
| --- | --- | --- | --- | --- | --- | --- | --- | --- | --- | --- |
| 134 | > 10000 | 16 | 37 | 3320 | CC[C@H](C)[C@H](NC(=O)[C@H](CC(C)C)NC(=O)[C@H](CC(C)C)NC(=O)CNC(=O)[C@@H](NC(=O)[C@H](CCCCN)NC(=O)[C@@H]1CCCN1C(=O)[C@@H](N)Cc1ccccc1)[C@@H](C)O)C(=O)O | – | – | – | – | – |
| 220 | 878 | 190 | 1.1 | 4650 | CC[C@H](C)[C@H](NC(=O)[C@H](CC(C)C)NC(=O)[C@H](CC(C)C)NC(=O)CNC(=O)[C@H](C)NC(=O)[C@H](CCCCN)NC(=O)[C@@H]1CCCN1C(=O)[C@@H](N)Cc1ccccc1)C(=O)N[C@H](C(=O)N[C@H](C(=O)O)C(C)C)[C@@H](C)CC (H-FPKAGLLIIV-OH; N-terminus and C-terminus assumed) | – | – | – | – | – |
| 3.4 | 77 | 5 | 0.6 | – | CC[C@H](C)[C@H](NC(=O)[C@@H](NC(=O)[C@H](Cc1ccc(O)cc1)NC(=O)[C@H](CC(C)C)NC(=O)[C@H](Cc1c[nH]cn1)NC(=O)CNC(=O)[C@@H](NC(=O)[C@@H]1CCCN1C(=O)[C@@H](N)Cc1ccccc1)[C@@H](C)CC)[C@@H](C)CC)C(=O)O | – | – | – | – | – |
| 204 | 2670 | 65 | – | 846 | CC[C@H](C)[C@H](NC(=O)[C@@H](NC(=O)[C@@H](NC(=O)[C@H](CC(C)C)NC(=O)[C@H](CC(C)C)NC(=O)CNC(=O)[C@H](C)NC(=O)[C@H](CCCCN)NC(=O)[C@@H]1CCCN1C(=O)[C@@H](N)Cc1ccccc1)[C@@H](C)CC)[C@@H](C)CC)C(=O)O | – | – | – | – | – |
